This note sets out measurements from ChEMBL document CHEMBL1153898, “Indolyl-pyrrolone as a new scaffold for Pim1 inhibitors” (Bioorg Med Chem Lett, 2009).

Activity calls are given as the source filed them. No cut-off for these calls is given here.

Test [1] addresses T1, Serine/threonine-protein kinase pim-1 (Homo sapiens, UniProt P11309). Kind of test: Inhibition of recombinant Pim1 by scintillation counter.
Target sequence in this assay (P11309 whole entry, looked up): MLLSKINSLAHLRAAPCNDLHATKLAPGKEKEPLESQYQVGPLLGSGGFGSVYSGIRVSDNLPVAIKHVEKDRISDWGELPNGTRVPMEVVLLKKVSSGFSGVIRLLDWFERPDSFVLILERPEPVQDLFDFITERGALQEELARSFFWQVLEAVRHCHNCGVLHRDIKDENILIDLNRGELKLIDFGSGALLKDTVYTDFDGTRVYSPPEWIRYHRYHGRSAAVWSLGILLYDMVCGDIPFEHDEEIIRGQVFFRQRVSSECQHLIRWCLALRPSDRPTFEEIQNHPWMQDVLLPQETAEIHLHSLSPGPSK
In test [2] the target is T1, Serine/threonine-protein kinase pim-1. Kind of test: Inhibition of recombinant Pim1 with increasing concentration of ATP.
Target sequence in this assay (P11309 whole entry, looked up): as above
For test [3] the target is unchanged. The experiment in a line: Inhibition of human recombinant Pim1 expressed in insect cells at 100 uM.
Target sequence in this assay (P11309 whole entry, looked up): as above
Test [4] has the same target. Kind of test: Inhibition of human recombinant Pim1 expressed in insect cells by HTRF.
Target sequence in this assay (P11309 whole entry): as the sequence (P11309 whole entry, looked up) above
In test [5] the test system is PC-3. The experiment in a line: Cell cycle arrest in human PC3 cells assessed as accumulation at S phase at 10 uM after 72 hrs by cytofluorimetric assay. The format is functional.
Test [6] has as its system PC-3. The experiment in a line: Antiproliferative activity against human PC3 cells assessed as reduction in cell number after 72 hrs. The format is functional, cell-based. The conditions noted are these: PC-3, 72 h.
In test [7] the test system is LNCaP. Kind of test: Cell cycle arrest in human LNCAP cells assessed as accumulation at G2 phase at 10 uM after 72 hrs by cytofluorimetric assay. In kind it is functional.
Test [8] relates to LNCaP. Kind of test: Antiproliferative activity against human LNCAP cells assessed as reduction in cell number after 72 hrs. In kind it is functional, cell-based.
The test system of test [9] is PC-3. Kind of test: Cell cycle arrest in human PC3 cells assessed as accumulation at G2 phase at 10 uM after 72 hrs by cytofluorimetric assay. In kind it is functional.
Test [10] concerns LNCaP. Kind of test: Cell cycle arrest in human LNCAP cells assessed as accumulation at S phase at 10 uM after 72 hrs by cytofluorimetric assay. In kind it is functional.
For test [11], the system named is LNCaP. Kind of test: Cell cycle arrest in human LNCAP cells assessed as accumulation at G1 phase at 10 uM after 72 hrs by cytofluorimetric assay. The format is functional.
Test [12] deals with PC-3. Kind of test: Cell cycle arrest in human PC3 cells assessed as accumulation at G1 phase at 10 uM after 72 hrs by cytofluorimetric assay. In kind it is functional.

As for `COc1cc(C2C(C(C)=O)=C(O)C(=O)N2CCc2c[nH]c3ccccc23)ccc1O` (stereo unspecified), the ID50 in test [1] is 9.5 µM. In addition, the result in test [2] was Active. Also, in test [3], the inhibition worked out at 90%. In addition, in [4], the inhibitory constant (Ki) is 4.5 µM.

As to `CN1C2C=C(N(CCc3c[nH]c4ccccc34)C(=O)c3ccc(Cl)cc3)CCC1CC2` (stereo unspecified), the inhibition in test [3] turned out to be 30%. For the same compound, the IC50 in test [4] amounted to 2100 nM.

On to `CC(=O)C1=C(O)C(=O)N(CCc2c[nH]c3ccccc23)C1c1cccc(O)c1` (stereo unspecified), for which the ID50 in test [1] is 19 µM. Also, in test [2], the outcome was Active. For the same compound, in test [3], the inhibition was 84%.

As for `CC(=O)Nc1ccc(-c2csc(-c3c[nH]c4ccccc34)n2)cc1`, the inhibition in test [3] stood at 1%.

As to `CN(C)CCCn1cc(C2=C(c3cn(C)c4ccccc34)C(=O)NC2=O)c2ccccc21`, in [4], the 50% inhibitory concentration (IC50) amounted to 150 nM.

Consider `C/C(=C/c1sc2ccccc2[n+]1CCO)C/C=C1/Sc2ccccc2N1CCO`, for which the inhibition in test [3] is -4%.

Turning to `O/N=C/c1ccccc1OCC(O)Cn1c2ccccc2c2ccccc21` (stereo unspecified), the inhibition in test [3] was 75%. Moreover, the IC50 in [4] was found to be 16000 nM.

Turning to `CCOc1ccc(C2C(C(C)=O)=C(O)C(=O)N2CCc2c[nH]c3ccccc23)cc1` (stereo unspecified), the ID50 in test [1] came to 12 µM. Moreover, the result in test [2] was Active. In test [3], the inhibition turned out to be 71%. Also, the Ki in test [4] worked out at 4.2 µM.

Take `CC(=O)C1=C(O)C(=O)N(CCc2c[nH]c3ccccc23)C1c1ccc(C)cc1` (stereo unspecified): in [1], the ID50 was found to be 10 µM. For the same compound, the result in test [2] was Active. For the same compound, the inhibition in test [3] came out at 54%.

Take `COC(=O)c1ccc(C2C(C(C)=O)=C(O)C(=O)N2CCc2c[nH]c3ccccc23)cc1` (stereo unspecified): the ID50 in test [1] was 13 µM. For the same compound, the outcome in test [2] was Active. Further, in test [3], the inhibition is 57%.

Turning to `CCc1ccc(C2C(C(C)=O)=C(O)C(=O)N2CCc2c[nH]c3ccccc23)cc1` (stereo unspecified), the ID50 in test [1] amounted to 4.5 µM. Also, the Activity worked out at 20.81% in [5]; 25.61% in test [7]; 14.94% in [9]; 34.92% in test [10]; 39.47% in [11]; 64.24% in test [12]. For the same compound, the IC50 worked out at 10.1 µM in [6] and 10.6 µM in [8]. Further, in test [2], the outcome was Active. The inhibition in test [3] is 79%. Moreover, the inhibition constant Ki in test [4] is 2.1 µM.

On to `CC(=O)C1=C(O)C(=O)N(CCc2c[nH]c3ccccc23)C1c1ccc(O)cc1` (stereo unspecified), for which, in test [1], the ID50 is 5.2 µM. Besides, the result in [2] was Active. Further, in test [3], the inhibition came to 92%. For the same compound, the inhibition constant Ki in test [4] stood at 2.2 µM.

With `CC(Cc1ccccc1)NC(=O)C(c1ccc(N)cc1)c1ccc(N)cc1` (stereo unspecified), in test [3], the inhibition was -7%.
